This assay relates to anesthetized rats. The experiment in a line: Anesthetized rat spirometry screening assay (ventilatory activity, minute volume). Type of assay: in vivo. The note with it: increase in minute volume (VE); for change in vivo at 0.3 mg/kg: 0.3 mg/kg IV bolus, read-out: VE % Inc @ 0.3 mg/kg IV; for change in vivo at 3 mg/kg: 3.0 mg/kg IV bolus, read-out: VE % Inc @ 3.0 mg/kg IV. The method, then:
Anesthetized rats provide a quick method of screening compounds for respiratory and cardiovascular activity.
Rats were initially anesthetized with 3% isoflurane (inhaled) and femoral artery and vein cannulas were surgically inserted. Once cannulated, the rats were transitioned to urethane anesthesia (1.5 g/kg; i.v.) and a tracheal cut-down was performed. After placing the tracheal cannula, it was connected to a pneumotachometer to record respiratory airflow from which respiratory rate (RR), tidal volume (VT), and their product minute volume (MV, also termed VE) were derived. After the surgical preparation was complete, animals were allowed to stabilize for 30 minutes while respiratory rate, tidal volume, minute volume, blood pressure and heart rate were recorded continuously. Arterial blood gases (ABG) were obtained from arterial blood collected from the femoral artery. ABG measurements were taken before and 6 minutes after vehicle and each dose of compound administered. Compounds being screened were administered via bolus injections through the venous cannula followed by a saline flush (total time of administration is approximately 30 seconds), and the animal was monitored for at least 6 minutes for changes in cardiovascular efforts. Compounds were prepared in formulations identified to ensure optimal solubility. As such, vehicle controls were matched for the formulation of each compound tested. Dosing of the compounds being screened was conducted at 0.1 and/or 0.3 mg/kg and/or 3 mg/kg The next dose was not administered until all cardiovascular and respiratory measures had returned to baseline levels. The positive control compounds used were N-[4,6-di-(n-propylamino)-[1,3,5]triazin-2-yl]-N,O-dimethyl-hydroxylamine or N-[2,6-di-(n-propylamino)-[1,3]pyrimidin-4-yl]-N,O-dimethyl-hydroxylamine (both administered at the end of each screening experiment (0.3 mg/kg dose) to validate the experiment and also to serve as a measure with which the compound being screened could be compared.
Data were analyzed by collecting cardiovascular and respiratory data in 30 second averages (BINs). Data were plotted 2 minutes before challenge and then 6 minutes after challenge.

Each structure is given as a SMILES string. Counter-ions that a name gives are not always drawn.

Regarding `CCCNc1nc(NC)c2nc(NC[C@@H](C)O)nc(NC)c2n1` [Compound 115, (R)-1-(4,8-Bis-methylamino-6-propylamino-pyrimido[5,4-d]pyrimidin-2-ylamino)-propan-2-ol], the change in vivo at 0.3 mg/kg stood at 60% and the change in vivo at 3 mg/kg was found to be 151%.

In the case of `CCC(O)CNc1nc(NC)c2nc(NCC3CC3)nc(NC)c2n1` (stereo not drawn) [Compound 146, 1-[6-(Cyclopropylmethyl-amino)-4,8-bis-methylamino-pyrimido[5,4-d]pyrimidin-2-ylamino]-butan-2-ol], the change in vivo at 0.3 mg/kg was found to be 9% and the change in vivo at 3 mg/kg came to 121%.

In the case of `CNc1nc(NCC(C)(C)O)nc2c(NC)nc(NCC(F)F)nc12` [Compound 107, 1-[6-(2,2-Difluoro-ethylamino)-4,8-bis-methylamino-pyrimido[5,4-d]pyrimidin-2-ylamino]-2-methyl-propan-2-ol], the change in vivo at 0.3 mg/kg stood at 14% and the change in vivo at 3 mg/kg amounted to 95%.

With `CNc1nc(NCC(F)(F)F)c2nc(NC)nc(NCCO)c2n1` [Compound 62a, 2-[2,6-Bis-methylamino-8-(2,2,2-trifluoro-ethylamino)-pyrimido[5,4-d]pyrimidin-4-ylamino]-ethanol Hydrochloride], the change in vivo at 0.3 mg/kg was 40%.

Regarding `CCCNc1nc(NCC(F)(F)F)nc2c(NCCO)nc(NCC(F)(F)F)nc12` [Compound 28a, 2-[8-propylamino-2,6-bis-(2,2,2-trifluoroethylamino)-pyrimido[5,4-d]pyrimidin-4-ylamino]ethanol hydrochloride], the change in vivo at 0.3 mg/kg was 16%.

With `CNc1nc(NC[C@@H](C)O)nc2c(NC)nc(NCC3CC3)nc12` [Compound 144, (R)-1-[6-(Cyclopropylmethyl-amino)-4,8-bis-methylamino-pyrimido[5,4-d]pyrimidin-2-ylamino]-propan-2-ol], the change in vivo at 0.3 mg/kg came out at 14% and the change in vivo at 3 mg/kg amounted to 98%.

With `CCNc1nc(NC)c2nc(NCC(O)CC)nc(NC)c2n1` (stereo not drawn) [Compound 147, 1-(6-Ethylamino-4,8-bis-methylamino-pyrimido[5,4-d]pyrimidin-2-ylamino)-butan-2-ol], the change in vivo at 0.3 mg/kg was found to be 31% and the change in vivo at 3 mg/kg was determined as 147%.

As for `CCCNc1nc(NC)nc2c(N(C)CCO)nc(NC)nc12` [Compound 6a, 2-[(2,6-Bis-methylamino-8-propylamino-pyrimido[5,4-d]pyrimidin-4-yl)-methyl-amino]-ethanol hydrochloride], the change in vivo at 0.3 mg/kg is 37%.

Regarding `CCCNc1nc(NCC)c2nc(NC[C@@H](C)O)nc(NCC)c2n1` [Compound 169, (R)-1-(4,8-Bis-ethylamino-6-propylamino-pyrimido[5,4-d]-pyrimidin-2-ylamino)-propan-2-ol], the change in vivo at 0.3 mg/kg was found to be 113% and the change in vivo at 3 mg/kg came out at 142%.

With `CNc1nc(NCC2CC2)c2nc(NC)nc(NCCO)c2n1` [Compound 54a, 2-[8-(Cyclopropylmethyl-amino)-2,6-bis-methylamino-pyrimido[5,4-d]pyrimidin-4-ylamino]-ethanol Hydrochloride], the change in vivo at 0.3 mg/kg worked out at 165%.

With `CCCNc1nc(NCC)nc2c(NCCO)nc(NCC)nc12` [Compound 27a, 2-(2,6-Bis-ethylamino-8-propylamino-pyrimido[5,4-d]pyrimidin-4-ylamino)-ethanol Hydrochloride], the change in vivo at 0.3 mg/kg amounted to 110%.

On to `CCCNc1nc(NC)nc2c(N[C@@H]3c4ccccc4C[C@@H]3O)nc(NC)nc12` [Compound 77, (1R,2S)-1-(2,6-Bis-methylamino-8-propylamino-pyrimido[5,4-d]-pyrimidin-4-ylamino)-indan-2-ol], for which the change in vivo at 0.3 mg/kg was found to be 135% and the change in vivo at 3 mg/kg came out at 170%.

Take `CC[C@H](C)Nc1nc(NC)c2nc(NCC(C)(C)O)nc(NC)c2n1` [Compound 103, 1-[6-((S)-sec-Butylamino)-4,8-bis-methylamino-pyrimido[5,4-d]-pyrimidin-2-ylamino]-2-methyl-propan-2-ol]: the change in vivo at 0.3 mg/kg is 5% and the change in vivo at 3 mg/kg is 99%.

In the case of `CCCNc1nc(NC)nc2c(NC3Cc4ccccc4C3O)nc(NC)nc12` (racemic) [Compound 81, 2-(2,6-Bis-methylamino-8-propylamino-pyrimido[5,4-d]-pyrimidin-4-ylamino)-indan-1-ol], the change in vivo at 0.3 mg/kg was found to be 50% and the change in vivo at 3 mg/kg amounted to 72%.

`CCCNc1nc(NCC(F)(F)F)nc2c(NCC(C)(C)O)nc(NCC(F)(F)F)nc12` [Compound 34a, 2-Methyl-1-[8-propylamino-2,6-bis-(2,2,2-trifluoro-ethylamino)-pyrimido[5,4-d]pyrimidin-4-ylamino]-propan-2-ol Hydrochloride]: the change in vivo at 0.3 mg/kg came to 2%.

With `CCCNc1nc(NC)c2nc(NC[C@H](C)O)nc(NC)c2n1` [Compound 113, (S)-1-(4,8-Bis-methylamino-6-propylamino-pyrimido[5,4-d]pyrimidin-2-ylamino)-propan-2-ol], the change in vivo at 0.3 mg/kg was found to be 111% and the change in vivo at 3 mg/kg stood at 190%.

On to `CCCNc1nc(NC)nc2c(NCC(O)CC)nc(NC)nc12` (stereo not drawn) [Compound 24a, 1-(2,6-Bis-methylamino-8-propylamino-pyrimido[5,4-d]pyrimidin-4-ylamino)-butan-2-ol Hydrochloride], for which the change in vivo at 0.3 mg/kg was determined as 100% and the change in vivo at 3 mg/kg amounted to 121%.

On to `CCCNc1nc(NC)c2nc(N[C@H]3CCCC[C@H]3O)nc(NC)c2n1` [Compound 131, (1R,2S)-2-(4,8-Bis-methylamino-6-propylamino-pyrimido[5,4-d]pyrimidin-2-ylamino)-cyclohexanol], for which the change in vivo at 0.3 mg/kg worked out at 18% and the change in vivo at 3 mg/kg came to 142%.

`CNc1nc(NCC(C)(C)O)c2nc(NC)nc(NCC3CC3)c2n1` [Compound 46a, 1-[8-(Cyclopropylmethyl-amino)-2,6-bis-methylamino-pyrimido[5,4-d]pyrimidin-4-ylamino]-2-methyl-propan-2-ol Hydrochloride]: the change in vivo at 0.3 mg/kg was 79% and the change in vivo at 3 mg/kg came out at 203%.

For the molecule `CCCNc1nc(NC)nc2c(NC[C@@H](C)O)nc(NC)nc12` [Compound 14a, (R)-1-(2,6-Bis-methylamino-8-propylamino-pyrimido[5,4-d]pyrimidin-4-ylamino)-propan-2-ol Hydrochloride], the change in vivo at 0.3 mg/kg was 88%.

In the case of `CCCNc1nc(NC)nc2c(N[C@@H](C)CO)nc(NC)nc12` [Compound 18a, (S)-2-(2,6-Bis-methylamino-8-propylamino-pyrimido[5,4-d]-pyrimidin-4-ylamino)-propan-1-ol Hydrochloride], the change in vivo at 0.3 mg/kg turned out to be 50%.

With `CC[C@@H](C)Nc1nc(NC)c2nc(NC[C@@H](C)O)nc(NC)c2n1` [Compound 100, (R)-1-[6-((R)-sec-Butylamino)-4,8-bis-methylamino-pyrimido[5,4-d]pyrimidin-2-ylamino]-propan-2-ol], the change in vivo at 0.3 mg/kg was 33% and the change in vivo at 3 mg/kg worked out at 139%.

For the molecule `CCCNc1nc(NC)nc2c(NCC3(O)CCC3)nc(NC)nc12` [Compound 72a, 1-[(2,6-Bis-methylamino-8-propylamino-pyrimido[5,4-d]pyrimidin-4-ylamino)-methyl]-cyclobutanol Hydrochloride], the change in vivo at 0.3 mg/kg stood at 132% and the change in vivo at 3 mg/kg was 150%.

With `CC[C@H](C)Nc1nc(NC)nc2c(NCC(C)(C)O)nc(NC)nc12` [Compound 42a, 1-[8-((S)-sec-Butylamino)-2,6-bis-methylamino-pyrimido[5,4-d]-pyrimidin-4-ylamino]-2-methyl-propan-2-ol Hydrochloride], the change in vivo at 0.3 mg/kg was 76% and the change in vivo at 3 mg/kg is 149%.

`CCCNc1nc(NC)nc2c(NC(C)C(C)O)nc(NC)nc12` (stereo not drawn) [Compound 26a, 3-(2,6-Bis-methylamino-8-propylamino-pyrimido[5,4-d]pyrimidin-4-ylamino)-butan-2-ol Hydrochloride]: the change in vivo at 0.3 mg/kg came to 39% and the change in vivo at 3 mg/kg came out at 143%.

As for `CNc1nc(NC[C@H](C)O)nc2c(NC)nc(N)nc12` [Compound 152, (S)-1-(6-Amino-4,8-bis-methylamino-pyrimido[5,4-d]-pyrimidin-2-ylamino)-propan-2-ol], the change in vivo at 0.3 mg/kg came to 7% and the change in vivo at 3 mg/kg is 89%.

Consider `CC[C@H](C)Nc1nc(NC)c2nc(NC[C@@H](C)O)nc(NC)c2n1` [Compound 104, (R)-1-[6-((S)-sec-Butylamino)-4,8-bis-methylamino-pyrimido[5,4-d]pyrimidin-2-ylamino]-propan-2-ol], for which the change in vivo at 0.3 mg/kg worked out at 33% and the change in vivo at 3 mg/kg came to 98%.

For `CCCNc1nc(NC)c2nc(N[C@H]3c4ccccc4C[C@H]3O)nc(NC)c2n1` [Compound 127, (1S,2R)-1-(4,8-Bis-methylamino-6-propylamino-pyrimido[5,4-d]-pyrimidin-2-ylamino)-indan-2-ol], the change in vivo at 0.3 mg/kg came out at 81% and the change in vivo at 3 mg/kg is 108%.

For the origin of these results see patent publication US10294228B2, “Breathing control modulating compounds, and methods of making and using same” (NEURAD LTD., priority 2015, dated 2019).
